Results on one compound are retold here after ChEMBL document CHEMBL2440114, “Methanolysis of triterpenoid saponin from Ardisia gigantifolia stapf. and structure-activity relationship study against cancer cells” (Bioorg Med Chem Lett, 2013).

The subject of test [1] is Bel-7402. In words: Cell cycle arrest in human Bel7402 cells assessed as accumulation in G2/M phase (reference value: 43.75+/- 1.1 %). Format: functional.
The test system of test [2] is Bel-7402. Put plainly: Cell cycle arrest in human Bel7402 cells assessed as accumulation in S phase (reference value: 18.65+/- 0.5 %). It counts as functional.
Test [3] relates to Bel-7402. Put plainly: Cell cycle arrest in human Bel7402 cells assessed as accumulation in G1 phase (reference value: 37.6+/- 1.4 %). Format: functional.
The test system of test [4] is Bel-7402. Put plainly: Antiproliferative activity against human Bel7402 cells after 12 to 72 hrs by MTT assay. Format: functional, cell-based.
The subject of test [5] is Bel-7402. In words: Antiproliferative activity against human Bel7402 cells at 0.5 to 20 uM by MTT assay. Format: functional, cell-based. Conditions: TDE = time-dependent effect.
The test system of another test is HCT-8. Put plainly: Antiproliferative activity against human HCT8 cells by MTT assay. It counts as functional, cell-based.
In test [6] the test system is Bel-7402. In words: Antiproliferative activity against human Bel7402 cells by MTT assay. Format: functional, cell-based.
The next test has as its system A549. Put plainly: Antiproliferative activity against human A549 cells by MTT assay. Format: functional, cell-based.

In the case of `C[C@@H]1O[C@@H](O[C@H]2[C@H](O)[C@@H](CO)O[C@@H](O[C@H]3CO[C@@H](O[C@H]4CC[C@]5(C)[C@H]6CC[C@]78OC[C@@]9(CCC(C)(C)C[C@H]97)[C@H](O)C[C@@]8(C)[C@]6(C)CC[C@H]5C4(C)C)[C@H](O[C@@H]4O[C@H](CO)[C@@H](O)[C@H](O)[C@H]4O)[C@H]3O)[C@@H]2O[C@@H]2OC[C@@H](O)[C@H](O)[C@H]2O)[C@H](O)[C@H](O)[C@H]1O`, the Activity with Bel-7402 [1] is 48.08%; with Bel-7402 [2] it was 18.61%; with Bel-7402 [3], 33.31%; with Bel-7402 [4], “Dose-dependent effect”; in the test with Bel-7402 [5] it was “tde”. In addition, the IC50 is more than 100 µM in the test with HCT-8, 0.86 µM with Bel-7402 [6] and 51.8 µM with A549.
